This is an account of results in patent US20230265378A1, “STIMULATING CELLULAR PRODUCTION OF EXOSOMES” (ROYAL MELBOURNE INSTITUTE OF TECHNOLOGY, priority 2020, published 2023).

Counter-ions that a name gives are not always drawn.

The subject of experiment [1] is intracellular Ca^2+. Nature of the experiment: Calcium influx study, intracellular Ca^2+ levels by Fura-2 AM assay. The experiment is classed as cell-based. Particulars: amiloride HCl 100 μM 60 mins, thapsigargin 100 nM 25 mins, BAPTA-AM 10 μM 25 mins, in combinations; FIG. 9a iv, v, vi. The procedure:
The data are represented in terms of the mean value±the standard error over quadruplicate runs, and the asterisks *, **, *** and **** indicate statistically significant differences with p<0:05, p<0:01, p<0:001 and p<0:0001, respectively.
The cells were seeded at a density of 0:05×10^6 cells per well in a 24-well glass-bottom plate and incubated at overnight in a humidified incubator. After incubation, they were treated with combinations of amiloride HCl (100 μM, for 60 mins)—a Ca^2+ ion channel blocker, thapsigargin (100 nM, for 25 mins)—an endoplasmic reticulum calcium ion inhibitor, and, BAPTA-AM (10 μM, for 25 mins)—a membrane permeable calcium chelator that removes intracellular calcium, following which they were incubated in the presence of 10 μM Fura2-AM for 60 mins at 37° C. to measure the intracellular Ca^2+ levels. The cells were then washed to remove the extracellular dye and replenished with DMEM, taking care to protect them from exposure to light. The media devoid of calcium from the inhibitor-treated cells was subsequently replaced with media containing calcium, and, where appropriate, exposed to the SRBW insonation (i.e. acoustic stimulation). Changes in the fluorescence intensity were measured with a spectrophotometric plate reader (CLARIOstar®, BMG LabTech, Mornington, VIC, Australia).

Experiment [2] deals with cells. The note with it: within 2 to 72 hrs; dose dependent; cited from earlier work.

With `N=C(N)NC(=O)c1nc(Cl)c(N)nc1N` [amiloride HCl, amiloride hydrochloride], the “effect on intracellular calcium store” value in experiment [1] is “deplete the intracellular calcium store”.

`C[C@H](CCC(=O)O)C[C@H](C)C[C@H](C)C(=O)/C=C(\O)[C@H](C)C[C@H](C)C/C=C/[C@@H](C)[C@@H](O)[C@@H](C)[C@@H](O)C[C@@H]1CC[C@@](C)([C@H]2CC[C@@](C)([C@@H](C)O)O2)O1` [ionomycin]: the enhancing exosome yield entry in experiment [2] is “two-and-one-half-fold”.

`C/C=C(/C)C(=O)O[C@H]1C(C)=C2[C@H]([C@@H]1OC(=O)CCCCCCC)[C@@](C)(OC(C)=O)C[C@H](OC(=O)CCC)[C@@]1(O)[C@H]2OC(=O)[C@@]1(C)O` [thapsigargin]: the “effect on intracellular calcium store” value in experiment [1] is “deplete the intracellular calcium store”. Take calcium phosphate: in experiment [2], the enhancing exosome yield result is “two-and-one-half-fold”.
